Our source for the viability values is US10844052B2, “LLS compounds for treatment of cancer” (THE REGENTS OF THE UNIVERSITY OF CALIFORNIA, priority 2016, dated 2020).

The subject of assay [1] is 22RV1 prostate cancer cells. Put plainly: Cell viability of prostate cancer 22RV1 cells after 72 hours treatment. Format: cell-based. The conditions noted are these: Homo sapiens.
Assay [2] concerns PC3 prostate cancer cells. Put plainly: Cell viability of prostate cancer PC3 cells after 72 hours treatment. The class given is cell-based. The conditions noted are these: Homo sapiens; for viability at 2.5 µM: PC-3, 2.5 μM; for viability at 5 µM: PC-3, 5 μM; for viability at 10 µM: PC-3, 10 μM; for viability at 20 µM: PC-3, 20 μM. The method, then: Effects of compounds LLS42-LLS80 on the viability of PC3 prostate cancer cells after 72 hours of treatment are shown in Table 2 below: […]

Each structure is given as a SMILES string.

Usually viability stands for a read-out of living cells in per cent, often relative to untreated cells.

In the case of `NC(=O)CC(NCc1ccc(Cl)c(Cl)c1)c1ccc2c(c1)nc(-c1ccc(N(CCO)CCO)cc1)n2CCc1ccc(OC(F)(F)F)cc1` (centres unmarked) [LLS100], in assay [1], the viability at 2.5 µM amounted to 99%, the viability at 5 µM stood at 28% and the viability at 10 µM stood at 0%.

On to `CN1CCN(c2ccc(-c3nc4cc(C(CC(N)=O)NCc5ccc(Cl)c(Cl)c5)ccc4n3Cc3ccc(Cl)c(Cl)c3)cc2)CC1` (centres unmarked) [LLS86, 3-(1-(3,4-dichlorobenzyl)-2-(4-(4-methylpiperazin-1-yl)phenyl)-1H-benzo[d]imidazol-5-yl)-3-((3,4-dichlorobenzyl)amino)propanamide], for which, in assay [1], the viability at 2.5 µM amounted to 45%, the viability at 5 µM came out at 0% and the viability at 10 µM is 0%.

For `NC(=O)CC(NCC1CCCCC1)c1ccc2c(c1)nc(-c1ccc(N3CCOCC3)cc1)n2Cc1ccc(Cl)c(C(F)(F)F)c1` (centres unmarked) [LLS98, 3-(1-(4-chloro-3-(trifluoromethyl)benzyl)-2-(4-morpholinophenyl)-1H-benzo[d]imidazol-5-yl)-3-((cyclohexylmethyl)amino)propanamide], in assay [1], the viability at 2.5 µM was determined as 40%, the viability at 5 µM is 0% and the viability at 10 µM came out at 0%.

Consider `NC(=O)CC(NCC1CCCCC1)c1ccc2c(c1)nc(-c1ccc(N3CCOCC3)cc1)n2CCc1ccccn1` (centres unmarked) [LLS109, 3-((cyclohexylmethyl)amino)-3-(2-(4-morpholinophenyl)-1-(2-(pyridin-2-yl)ethyl)-1H-benzo[d]imidazol-5-yl)propanamide], for which, in assay [1], the viability at 2.5 µM turned out to be 98%, the viability at 5 µM came out at 88% and the viability at 10 µM was found to be 88%.

For the compound `NC(=O)CC(NCC1CCCCC1)c1ccc2c(c1)nc(-c1ccncc1)n2Cc1ccc(OC(F)(F)F)cc1` (centres unmarked) [LLS88, 3-((cyclohexylmethyl)amino)-3-(2-(pyridin-4-yl)-1-(4-(trifluoromethoxy)benzyl)-1H-benzo[d]imidazol-5-yl)propanamide], in assay [1], the viability at 2.5 µM is 75%, the viability at 5 µM amounted to 4% and the viability at 10 µM stood at 0%.

Take `NC(=O)CC(NCc1ccc(Cl)c(Cl)c1)c1ccc2c(c1)nc(-c1ccc(N(CCO)CCO)cc1)n2Cc1cccc2ccccc12` (centres unmarked) [LLS102, 3-(2-(4-(bis(2-hydroxyethyl)amino)phenyl)-1-(naphthalen-1-ylmethyl)-1H-benzo[d]imidazol-5-yl)-3-((3,4-dichlorobenzyl)amino)propanamide]: in assay [1], the viability at 2.5 µM amounted to 23%, the viability at 5 µM came to 0% and the viability at 10 µM amounted to 0%.

Take `NC(=O)CC(NCC1CCCCC1)c1ccc2c(c1)nc(-c1ccc(N3CCOCC3)cc1)n2Cc1cccc2ccccc12` (centres unmarked) [LLS103, 3-((cyclohexylmethyl)amino)-3-(2-(4-morpholinophenyl)-1-(naphthalen-1-ylmethyl)-1H-benzo[d]imidazol-5-yl)propanamide]: in assay [1], the viability at 2.5 µM was 1%, the viability at 5 µM came to 0% and the viability at 10 µM is 0%.

`NC(=O)CC(NCc1ccc(F)c(F)c1)c1ccc2c(c1)nc(-c1ccc(N(CCO)CCO)cc1)n2Cc1ccc(Cl)c(Cl)c1` (centres unmarked) [LLS83, 3-(2-(4-(bis(2-hydroxyethyl)amino)phenyl)-1-(3,4-dichlorobenzyl)-1H-benzo[d]imidazol-5-yl)-3-((3,4-difluorobenzyl)amino)propanamide]: in assay [1], the viability at 2.5 µM was found to be 20%, the viability at 5 µM is 1% and the viability at 10 µM is 0%.

Turning to `NC(=O)CC(NCc1ccc(Cl)c(Cl)c1)c1ccc2c(c1)nc(-c1ccc(N(CCO)CCO)cc1)n2Cc1ccc2c(c1)OCO2` (centres unmarked) [LLS106, 3-(1-(benzo[d][1,3]dioxol-5-ylmethyl)-2-(4-(bis(2-hydroxyethyl)amino)phenyl)-1H-benzo[d]imidazol-5-yl)-3-((3,4-dichlorobenzyl)amino)propanamide], in assay [1], the viability at 2.5 µM was determined as 30%, the viability at 5 µM stood at 2% and the viability at 10 µM stood at 0%.

In the case of `CC(=O)OCCN(CCOC(C)=O)c1ccc(-c2nc3cc(C(CC(N)=O)NCc4ccc(Br)s4)ccc3n2CCN)cc1` (centres unmarked) [LLS45Ac, ((4-(5-(3-amino-1-(((5-bromothiophen-2-yl)methyl)amino)-3-oxopropyl)-1-(2-aminoethyl)-1H-benzo[d]imidazol-2-yl)phenyl)azanediyl)bis(ethane-2,1-diyl) Diacetate], in assay [2], the viability at 2.5 µM worked out at 98%, the viability at 5 µM was 98%, the viability at 10 µM stood at 98% and the viability at 20 µM turned out to be 91%.

On to `COc1cccc(Cn2c(-c3ccc(N(CCO)CCO)cc3)nc3cc(C(CC(N)=O)NCc4ccc5[nH]ncc5c4)ccc32)c1` (centres unmarked) [LLS59, 3-(((1H-indazol-5-yl)methyl)amino)-3-(2-(4-(bis(2-hydroxyethyl)amino)phenyl)-1-(3-methoxybenzyl)-1H-benzo[d]imidazol-5-yl)propanamide], for which, in assay [2], the viability at 2.5 µM came to 83%, the viability at 5 µM came out at 97%, the viability at 10 µM is 90% and the viability at 20 µM turned out to be 91%.

Turning to `CC(=O)OCCN(CCOC(C)=O)c1ccc(-c2nc3cc(C(CC(N)=O)NCc4ccc(-c5ccncc5)cc4)ccc3n2CCCn2ccnc2)cc1` (centres unmarked) [LLS58Ac, ((4-(1-(3-(1H-imidazol-1-yl)propyl)-5-(3-amino-3-oxo-1-((4-(pyridin-4-yl)benzyl)amino)propyl)-1H-benzo[d]imidazol-2-yl)phenyl)azanediyl)bis(ethane-2,1-diyl) Diacetate], in assay [2], the viability at 2.5 µM was found to be 100%, the viability at 5 µM stood at 98%, the viability at 10 µM stood at 91% and the viability at 20 µM stood at 83%.

With `NC(=O)CC(NCc1cccc2ccccc12)c1ccc2c(c1)nc(-c1ccc(N(CCO)CCO)cc1)n2Cc1ccc(C(F)(F)F)cc1` (centres unmarked) [LLS73, 3-(2-(4-(bis(2-hydroxyethyl)amino)phenyl)-1-(4-(trifluoromethyl)benzyl)-1H-benzo[d]imidazol-5-yl)-3-((naphthalen-1-ylmethyl)amino)propanamide], in assay [2], the viability at 2.5 µM was determined as 94%, the viability at 5 µM turned out to be 92%, the viability at 10 µM is 69% and the viability at 20 µM turned out to be 8%.

On to `NC(=O)CC(NCc1ccc2[nH]ncc2c1)c1ccc2c(c1)nc(-c1ccc(N(CCO)CCO)cc1)n2Cc1ccc(C(F)(F)F)cc1` (centres unmarked) [LLS77, 3-(((1H-indazol-5-yl)methyl)amino)-3-(2-(4-(bis(2-hydroxyethyl)amino)phenyl)-1-(4-(trifluoromethyl)benzyl)-1H-benzo[d]imidazol-5-yl)propanamide], for which, in assay [2], the viability at 2.5 µM stood at 99%, the viability at 5 µM came to 100%, the viability at 10 µM came to 101% and the viability at 20 µM is 103%.

On to `NC(=O)CC(NCc1ccc2[nH]ncc2c1)c1ccc2c(c1)nc(-c1ccc(N(CCO)CCO)cc1)n2Cc1ccc(OC(F)(F)F)cc1` (centres unmarked) [LLS55, 3-(((1H-indazol-5-yl)methyl)amino)-3-(2-(4-(bis(2-hydroxyethyl)amino)phenyl)-1-(4-(trifluoromethoxy)benzyl)-1H-benzo[d]imidazol-5-yl)propanamide], for which, in assay [2], the viability at 2.5 µM worked out at 91%, the viability at 5 µM was found to be 100%, the viability at 10 µM amounted to 102% and the viability at 20 µM was 92%.

As to `COc1ccc(CCn2c(-c3ccc(N(CCOC(C)=O)CCOC(C)=O)cc3)nc3cc(C(CC(N)=O)NCC4CCCCC4)ccc32)cc1` (centres unmarked) [LLS56Ac, ((4-(5-(3-amino-1-((cyclohexylmethyl)amino)-3-oxopropyl)-1-(4-methoxyphenethyl)-1H-benzo[d]imidazol-2-yl)phenyl)azanediyl)bis(ethane-2,1-diyl) Diacetate], in assay [2], the viability at 2.5 µM amounted to 85%, the viability at 5 µM is 93%, the viability at 10 µM stood at 92% and the viability at 20 µM came out at 55%.

For `CC(=O)OCCN(CCOC(C)=O)c1ccc(-c2nc3cc(C(CC(N)=O)NCc4ccc(-c5ccn[nH]5)s4)ccc3n2CCCN(C)C)cc1` (centres unmarked) [LLS78, ((4-(5-(1-(((5-(1H-pyrazol-5-yl)thiophen-2-yl)methyl)amino)-3-amino-3-oxopropyl)-1-(3-(dimethylamino)propyl)-1H-benzo[d]imidazol-2-yl)phenyl)azanediyl)bis(ethane-2,1-diyl) Diacetate], in assay [2], the viability at 2.5 µM was 97%, the viability at 5 µM amounted to 93%, the viability at 10 µM turned out to be 101% and the viability at 20 µM was 100%.

Regarding `COc1ccc(CCn2c(-c3ccc(N(CCOC(C)=O)CCOC(C)=O)cc3)nc3cc(C(N)CC(N)=O)ccc32)cc1` (centres unmarked) [LLS76, ((4-(5-(1,3-diamino-3-oxopropyl)-1-(4-methoxyphenethyl)-1H-benzo[d]imidazol-2-yl)phenyl)azanediyl)bis(ethane-2,1-diyl) Diacetate], in assay [2], the viability at 2.5 µM was 92%, the viability at 5 µM was 86%, the viability at 10 µM was determined as 86% and the viability at 20 µM was 85%.

In the case of `NCCn1c(-c2ccc(N(CCO)CCO)cc2)nc2cc(C(CC(N)=O)NCc3ccc(Br)s3)ccc21` (centres unmarked) [LLS45, 3-(1-(2-aminoethyl)-2-(4-(bis(2-hydroxyethyl)amino)phenyl)-1H-benzo[d]imidazol-5-yl)-3-(((5-bromothiophen-2-yl)methyl)amino)propanamide], in assay [2], the viability at 2.5 µM turned out to be 92%, the viability at 5 µM was 102%, the viability at 10 µM was 118% and the viability at 20 µM turned out to be 117%.

Turning to `NC(=O)CC(NCC1CCCCC1)c1ccc2c(c1)nc(-c1ccc(N3CCOCC3)cc1)n2Cc1ccc(OC(F)(F)F)cc1` (centres unmarked) [LLS80, 3-((cyclohexylmethyl)amino)-3-(2-(4-morpholinophenyl)-1-(4-(trifluoromethoxy)benzyl)-1H-benzo[d]imidazol-5-yl)propanamide], in assay [2], the viability at 2.5 µM is 86%, the viability at 5 µM worked out at 25%, the viability at 10 µM came out at 6% and the viability at 20 µM came to 0%.
